Data published in the NIST ThermoML archive (doi:10.1021/je800145h).

Details: Liquid

CC(C)CO [2-methyl-1-propanol]
Details | vapor or sublimation pressure [kPa]
357.45 K | 40
364.17 K | 53.33
369.67 K | 66.66
374.35 K | 79.99
378.45 K | 93.32
379.96 K | 98.66

CC(C)(C)O [2-methylpropan-2-ol]
Details | vapor or sublimation pressure [kPa]
333.9 K | 40
340.13 K | 53.33
345.21 K | 66.66
349.53 K | 79.99
353.32 K | 93.32
354.61 K | 98.66

CCCCO [butan-1-ol]
Details | vapor or sublimation pressure [kPa]
366.76 K | 40
373.74 K | 53.33
379.43 K | 66.66
384.26 K | 79.99
388.49 K | 93.32
390.04 K | 98.66

CCC(C)O (stereo unspecified) [butan-2-ol]
Details | vapor or sublimation pressure [kPa]
349.73 K | 40
356.36 K | 53.33
361.77 K | 66.66
366.36 K | 79.99
370.38 K | 93.32
371.86 K | 98.66

CCO [ethanol]
Details | vapor or sublimation pressure [kPa]
329.62 K | 40
335.99 K | 53.33
341.2 K | 66.66
345.6 K | 79.99
349.42 K | 93.32
350.82 K | 98.66

CO [methanol]
Details | vapor or sublimation pressure [kPa]
315.75 K | 40
322.15 K | 53.33
327.34 K | 66.66
331.73 K | 79.99
335.57 K | 93.32
336.98 K | 98.66

CCCO [propan-1-ol]
Details | vapor or sublimation pressure [kPa]
347.55 K | 40
354.18 K | 53.33
359.56 K | 66.66
364.11 K | 79.99
368.08 K | 93.32
369.55 K | 98.66

CC(C)O [propan-2-ol]
Details | vapor or sublimation pressure [kPa]
333.94 K | 40
340.18 K | 53.33
345.25 K | 66.66
349.55 K | 79.99
353.3 K | 93.32
354.67 K | 98.66

C1CCOCC1 [tetrahydropyran]
Details | mass density [kg/m3]
298.15 K, 101.33 kPa, Vibrating tube method | 879

Details | vapor or sublimation pressure [kPa]
332.98 K | 40
341.09 K | 53.33
347.72 K | 66.66
353.38 K | 79.99
358.37 K | 93.32
360.22 K | 98.66
361.23 K | 101.32
